The term Ki denotes the dissociation constant of the complex between target and ligand, obtained from inhibition or displacement. Usually inhibition stands for the relative decrease from the control value, in per cent.

The target of assay [1] is T1, hA1AR (Homo sapiens (Human), UniProt P30542). The assay is described as follows: Radioligand membrane binding at hA1AR (Example 6). The conditions noted are these: for Ki: CHO cells expressing hA1AR, [3H]R-PIA, n = 3-5, read-out: Affinity Ki, nM A1; for inhibition at 10 µM: read-out: (% inhibition) A1; for (% inhibition) A1: percent inhibition of radioligand binding at 10 μM. As to the method: (§1) In addition, 800 μg/mL Geneticin and 500 μg/mL hygromycin were added to the A2A media and to the A1 and A3 media, respectively. […] The concentration of protein was determined using a BCA Protein Assay Kit from Pierce Biotechnology (Rockford, Ill.).
T1 sequence (P30542 whole entry): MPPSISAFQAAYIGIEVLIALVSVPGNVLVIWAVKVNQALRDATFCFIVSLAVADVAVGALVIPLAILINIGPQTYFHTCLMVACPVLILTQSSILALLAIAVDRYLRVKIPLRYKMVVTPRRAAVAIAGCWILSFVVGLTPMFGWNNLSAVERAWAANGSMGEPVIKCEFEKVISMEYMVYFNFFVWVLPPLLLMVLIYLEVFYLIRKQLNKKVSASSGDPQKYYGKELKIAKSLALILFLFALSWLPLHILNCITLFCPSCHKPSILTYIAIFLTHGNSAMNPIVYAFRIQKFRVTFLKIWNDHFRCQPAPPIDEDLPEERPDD
(§2) Radioligand binding assays at A1, A2A, and A3ARs were performed according to the procedures described previously.
(§3) All of the filters were washed 3 times with Tris-HCl, pH 7.5. […] Filters for A3AR binding were counted using a PerkinElmer Cobra II γ-counter.
(§4) Binding and functional parameters were calculated using Prism 5.0 software (GraphPAD, San Diego, Calif., USA). IC50 values obtained from competition curves were converted to Ki values using the Cheng-Prusoff equation. Data were expressed as mean±standard error.

In the next assay the target is hA2AAR (Homo sapiens (Human), UniProt P29274). The assay is described as follows: Radioligand membrane binding at hA2AAR (Example 6). The following applies: for Ki: HEK293 cells expressing hA2AAR, [3H]CGS21680, n = 3-5, read-out: Affinity Ki, nM A2A; for (% inhibition) A2A: percent inhibition of radioligand binding at 10 μM; for inhibition at 10 µM: read-out: (% inhibition) A2A. The procedure: as §1, §2, §3, §4
hA2AAR, sequence (P29274 whole entry): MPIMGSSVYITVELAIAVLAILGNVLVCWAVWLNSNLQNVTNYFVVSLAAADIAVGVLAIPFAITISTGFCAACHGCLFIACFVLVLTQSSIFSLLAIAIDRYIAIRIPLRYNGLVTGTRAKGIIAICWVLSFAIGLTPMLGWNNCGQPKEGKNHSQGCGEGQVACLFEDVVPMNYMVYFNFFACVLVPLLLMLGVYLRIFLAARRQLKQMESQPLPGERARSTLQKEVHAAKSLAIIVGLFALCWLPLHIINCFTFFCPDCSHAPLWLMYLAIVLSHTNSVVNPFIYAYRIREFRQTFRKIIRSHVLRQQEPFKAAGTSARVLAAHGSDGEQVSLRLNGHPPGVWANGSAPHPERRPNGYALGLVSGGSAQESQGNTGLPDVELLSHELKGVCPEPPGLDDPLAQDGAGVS

The target of the next assay is hA3AR (Homo sapiens (Human), UniProt P0DMS8). Briefly: Radioligand membrane binding at hA3AR (Example 6). The conditions noted are these: for Ki: CHO cells expressing hA3AR, [125I]I-AB-MECA, n = 3-5, read-out: Affinity Ki, nM A3.
hA3AR, sequence (P0DMS8 whole entry): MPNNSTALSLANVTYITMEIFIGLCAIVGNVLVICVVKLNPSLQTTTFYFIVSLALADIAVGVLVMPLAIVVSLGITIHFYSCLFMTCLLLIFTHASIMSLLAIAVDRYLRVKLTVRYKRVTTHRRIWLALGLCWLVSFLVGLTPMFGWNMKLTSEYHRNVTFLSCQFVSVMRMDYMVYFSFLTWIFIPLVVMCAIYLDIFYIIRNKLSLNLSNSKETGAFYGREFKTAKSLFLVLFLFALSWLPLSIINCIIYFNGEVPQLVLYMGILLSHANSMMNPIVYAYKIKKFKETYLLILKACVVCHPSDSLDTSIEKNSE
In assay [2] the target is T1, hA1AR. Briefly: A1AR functional assay, inhibition of forskolin-stimulated cyclic AMP production in AR-transfected CHO cells. Type of assay: cell-based. The conditions noted are these: for % Inhibition, cyclic AMP A1: maximal efficacy at 10 μM, in comparison to effect (100%) of full agonist CPA at 10 μM, n = 3-5; for inhibition at 10 µM: CHO, read-out: % Inhibition, cyclic AMP A1.
Procedure: CHO cells that expressed the recombinant human or rat A3AR or the human A1 or A2BAR were harvested by trypsinization. After centrifugation and resuspended in medium, cells were planted in 24-well plates in 1.0 mL medium. […] The reaction was terminated by removing the supernatant, and cells were lysed upon the addition of 200 μL of 0.1 M ice-cold HCl. The cell lysate was resuspended and stored at −20° C. For determination of cyclic AMP production, protein kinase A (PKA) was incubated with [^3H]cyclic AMP (2 nM) in K2HPO4/EDTA buffer (K2HPO4, 150 mM; EDTA, 10 mM), 20 μL of the cell lysate, and 30 μL 0.1 M HCl or 50 μL of cyclic AMP solution (0-16 pmol/200 μL for standard curve). Bound radioactivity was separated by rapid filtration through Whatman GF/C filters and washed once with cold buffer. Bound radioactivity was measured by liquid scintillation spectrometry.
Intracellular cAMP levels were measured with a competitive protein binding method.

Structures are written as SMILES.

Procedure for hA3AR: Chinese hamster ovary (CHO) cells stably expressing either the recombinant hA1 or hA3AR and human embryonic kidney (HEK) 293 cells stably expressing the human (h) A2AAR were cultured in DMEM and F12 (1:1), supplemented with 10% fetal bovine serum, 100 units/mL penicillin, 100 μg/mL streptomycin, and 2 μmol/mL glutamine. In addition, 800 μg/mL Geneticin and 500 μg/mL hygromycin were added to the A2A media and to the A1 and A3 media, respectively. […] The concentration of protein was determined using a BCA Protein Assay Kit from Pierce Biotechnology (Rockford, Ill.).
The mixtures were incubated at 25° C. for 60 min. Binding reactions were terminated by filtration through Whatman GF/B filters under a reduced pressure using a MT-24 cell harvester (Brandell, Gaithersburg, Md.). Filters were washed three times with 5 ml of 50 mM ice-cold Tris-HCl buffer (pH 7.5). […] All of the filters were washed 3 times with Tris-HCl, pH 7.5. […] Filters for A3AR binding were counted using a PerkinElmer Cobra II γ-counter.

Take `O[C@@H]1[C@H](O)[C@@H]2C[C@@H]2[C@H]1n1cnc2c(NC3CCC3)nc(Cl)nc21` [Compound 109, (1R,2R,3S,4R,5S)-4-(2-Chloro-6-(cyclobutylamino)-9H-purin-9-yl)bicyclo[3.1.0]hexane-2,3-diol]: the results for the inhibitory constant (Ki) at hA1AR [1], on hA2AAR and on hA3AR were 51.6 ± 12.6 nM, 3020 ± 90 nM and 5.9 ± 0.5 nM, respectively.
In the case of `O[C@@H]1[C@H](O)[C@@H]2C[C@@H]2[C@H]1n1cnc2c(N[C@@H](c3ccccc3)C3CC3)nc(Cl)nc21` [Compound 220, (1R,2R,3S,4R,5S)-4-(2-Chloro-6-((R)-cyclopropylphenylmethylamino)-9H-purin-9-yl)bicyclo[3.1.0]hexane-2,3-diol], at hA1AR [1], the Ki is 3000 ± 440 nM. The “(% inhibition) A2A” value at hA2AAR was “(46 ± 4%)”. Further, the “% Inhibition, cyclic AMP A1” value on hA1AR [2] is −7.4 ± 6.0%.
As for `O[C@@H]1[C@H](O)[C@@H]2C[C@@H]2[C@H]1n1cnc2c(NCc3cccc(OCCF)c3)nc(Cl)nc21` [Compound 124, (1R,2R,3S,4R,5S)-4-(2-chloro-6-(3-(2-fluoroethoxy)benzylamino)-9H-purin-9-yl)bicyclo[3.1.0]hexane-2,3-diol], the inhibition at 10 µM was determined as 34% on hA1AR [1] and 32% on hA2AAR. Also, the Ki on hA3AR turned out to be 15.2 ± 3 nM.
Take `O[C@@H]1[C@H](O)[C@@H]2C[C@@H]2[C@H]1n1cnc2c(NCC3CC3)nc(Cl)nc21` [Compound 119, (1R,2R,3S,4R,5S)-4-(2-Chloro-6-(cyclopropylmethylamino)-9H-purin-9-yl)bicyclo[3.1.0]hexane-2,3-diol]: the Ki at hA1AR [1] was 68.4 ± 8.9 nM; on hA2AAR it was 4410 ± 1090 nM; at hA3AR it was 8.9 ± 1.9 nM. Further, on hA1AR [2], the inhibition at 10 µM amounted to 81 ± 21.1%.
Take `CC(Nc1nc(Cl)nc2c1ncn2[C@H]1[C@H](O)[C@H](O)[C@@H]2C[C@@H]21)C1CC1` (stereo partly drawn) [Compound 120, (1R,2R,3S,4R,5S)-4-(2-Chloro-6-(1-cyclopropylethylamino)-9H-purin-9-yl)bicyclo[3.1.0]hexane-2,3-diol]: the values for the Ki at hA1AR [1] and on hA3AR were 86.8 ± 23.7 nM and 110 ± 17 nM, respectively. In addition, the “(% inhibition) A2A” value on hA2AAR is “(41%)”.
Turning to `O[C@@H]1[C@H](O)[C@@H]2C[C@@H]2[C@H]1n1cnc2c(NCc3ccccc3OCCF)nc(Cl)nc21` [Compound 123, (1R,2R,3S,4R,5S)-4-(2-chloro-6-(2-(2-fluoroethoxy)benzylamino)-9H-purin-9-yl)bicyclo[3.1.0]hexane-2,3-diol], the Ki on hA3AR was 10.3 ± 1.5 nM.
As to `O[C@@H]1[C@H](O)[C@@H]2C[C@@H]2[C@H]1n1cnc2c(N[C@@H](CC3CC3)C3CC3)nc(Cl)nc21` [Compound 219, (1R,2R,3S,4R,5S)-4-(2-Chloro-6-((S)-1,2-dicyclopropylethylamino)-9H-purin-9-yl)bicyclo[3.1.0]hexane-2,3-diol], the Ki at hA1AR [1] is 170 ± 20 nM; on hA2AAR, 2550 ± 170 nM; on hA3AR, 550 ± 50 nM. Further, the inhibition at 10 µM at hA1AR [2] was 24 ± 5.2%.
For the compound `CC(C)[C@@H](Nc1nc(Cl)nc2c1ncn2[C@H]1[C@H](O)[C@H](O)[C@@H]2C[C@@H]21)C1CC1` [Compound 214, (1R,2R,3S,4R,5S)-4-(2-Chloro-6-((R)-1-cyclopropyl-2-methyl-propylamino)-9H-purin-9-yl)bicyclo[3.1.0]hexane-2,3-diol], the Ki was determined as 76 ± 8 nM at hA1AR [1], 1570 ± 180 nM on hA2AAR and 780 ± 80 nM at hA3AR. In addition, the inhibition at 10 µM on hA1AR [2] was found to be 33.8 ± 2.3%.
For `CC[C@@H](Nc1nc(Cl)nc2c1ncn2[C@H]1[C@H](O)[C@H](O)[C@@H]2C[C@@H]21)C1CC1` [Compound 212, (1R,2R,3S,4R,5S)-4-(2-Chloro-6-((R)-1-cyclopropylpropylamino)-9H-purin-9-yl)bicyclo[3.1.0]hexane-2,3-diol], in that order: 68.1 ± 5 nM, 3610 ± 500 nM, 150 ± 2 nM and 37.3 ± 4.3%.
For `O[C@@H]1[C@H](O)[C@@H]2C[C@@H]2[C@H]1n1cnc2c(NC(C3CCCC3)C3CCCC3)nc(Cl)nc21` [Compound 211, (1R,2R,3S,4R,55)-4-(2-Chloro-6-(dicyclopentylmethylamino)-9H-purin-9-yl)bicyclo[3.1.0]hexane-2,3-diol], the “(% inhibition) A1” value on hA1AR [1] is on record as “(34 ± 3%)”. For the same compound, the “(% inhibition) A2A” value at hA2AAR was “(13 ± 3%)”. Besides, the “(% inhibition) A3” value on hA3AR (percent inhibition of radioligand binding at 10 μM) is listed as “(48 ± 2%)”.
Take `O[C@@H]1[C@H](O)[C@@H]2C[C@@H]2[C@H]1n1cnc2c(NCC(C3CC3)C3CC3)nc(Cl)nc21` [Compound 207, (1R,2R,3S,4R,5S)-4-(2-Chloro-6-(2,2-dicyclopropylethylamino)-9H-purin-9-yl)bicyclo[3.1.0]hexane-2,3-diol]: the Ki at hA1AR [1] was found to be 780 ± 100 nM; on hA3AR, 670 ± 10 nM. Besides, the inhibition at 10 µM on hA1AR [2] is -9 ± 4.1%.
As for `OCc1cc(F)c(F)cc1CNc1nc(Cl)nc2c1ncn2[C@@]12C[C@H](O)[C@H](O)[C@@H]1C2` [Compound 128], the values for the Ki on hA1AR [1], at hA2AAR and at hA3AR were 1910 ± 310 nM, 7510 ± 690 nM and 40.4 ± 13.1 nM, respectively.
Consider `O[C@@H]1[C@H](O)[C@@H]2C[C@@H]2[C@H]1n1cnc2c(NCc3cc(F)ccc3F)nc(Cl)nc21` [Compound 125, (1R,2R,3S,4R,5S)-4-(2-chloro-6-(2,5-difluorobenzylamino)-9H-purin-9-yl)bicyclo[3.1.0]hexane-2,3-diol], for which the figures for the Ki at hA1AR [1] and at hA3AR were 3580 ± 220 nM and 114 ± 45 nM, respectively. The inhibition at 10 µM at hA2AAR was determined as 46%.
As for `O[C@@H]1[C@H](O)[C@@H]2C[C@@H]2[C@H]1n1cnc2c(N[C@@H](C3CCC3)C3CC3)nc(Cl)nc21` [Compound 216, (1R,2R,3S,4R,5S)-4-(2-Chloro-6-((R)-cyclopropylcyclobutylmethylamino)-9H-purin-9-yl)bicyclo[3.1.0]hexane-2,3-diol], the Ki on hA1AR [1] worked out at 270 ± 60 nM; at hA2AAR, 5470 ± 300 nM; on hA3AR, 2930 ± 480 nM. Further, at hA1AR [2], the “% Inhibition, cyclic AMP A1” value was determined as 33.4 ± 5.2%.
Regarding `COc1ccc(F)c(F)c1CNc1nc(Cl)nc2c1ncn2[C@H]1[C@H](O)[C@H](O)[C@@H]2C[C@@H]21` [Compound 126, (1R,2R,3S,4R,5S)-4-(2-chloro-6-(2,3-difluoro-6-methoxybenzylamino)-9H-purin-9-yl)bicyclo[3.1.0]hexane-2,3-diol], the Ki on hA1AR [1] is 1260 ± 240 nM; on hA3AR, 16.5 ± 2.8 nM. The inhibition at 10 µM at hA2AAR stood at 38%.
Turning to `OC[C@H]1O[C@@H](n2cnc3c(NC4CCCC4)ncnc32)[C@H](O)[C@@H]1O` [Compound 235a, N^6-cyclopentyladenosine, reference compound], the “% Inhibition, cyclic AMP A1” value at hA1AR [2] was 100 ± 2.6%.
As to `O[C@@H]1[C@H](O)[C@@H]2C[C@@H]2[C@H]1n1cnc2c(NCc3ccccc3F)nc(Cl)nc21` [Compound 122, (1R,2R,3S,4R,5S)-4-(2-Chloro-6-(2-fluorobenzylamino)-9H-purin-9-yl)bicyclo[3.1.0]hexane-2,3-diol], the Ki worked out at 4790 ± 670 nM on hA1AR [1] and 41.5 ± 1 nM on hA3AR.
In the case of `O[C@@H]1[C@H](O)[C@@H]2C[C@@H]2[C@H]1n1cnc2c(NCCCF)nc(Cl)nc21` [Compound 116, (1R,2R,3S,4R,5S)-4-(2-Chloro-6-(3-fluoropropylamino)-9H-purin-9-yl)bicyclo[3.1.0]hexane-2,3-diol], the figures for the Ki at hA1AR [1] and on hA3AR were 72.7 ± 28 nM and 32.4 ± 6.7 nM, respectively. The inhibition at 10 µM on hA1AR [2] was determined as 23.2 ± 2.6%.
For `CCNc1nc(Cl)nc2c1ncn2[C@H]1[C@H](O)[C@H](O)[C@@H]2C[C@@H]21` [Compound 115, (1R,2R,3S,4R,5S)-4-(2-Chloro-6-(ethylamino)-9H-purin-9-yl)bicyclo[3.1.0]hexane-2,3-diol], the values for the Ki at hA1AR [1] and on hA3AR were 930 ± 110 nM and 6.6 ± 1.6 nM, respectively. The “(% inhibition) A2A” value on hA2AAR is recorded as “(11%)”.
Take `O[C@@H]1[C@H](O)[C@@H]2C[C@@H]2[C@H]1n1cnc2c(N[C@H](c3ccccc3)C3CC3)nc(Cl)nc21` [Compound 221, (1R,2R,3S,4R,5S)-4-(2-Chloro-6-((S)-cyclopropylphenylmethylamino)-9H-purin-9-yl)bicyclo[3.1.0]hexane-2,3-diol]: the “(% inhibition) A1” value at hA1AR [1] was “(50 ± 5%)”. For the same compound, the “(% inhibition) A2A” value at hA2AAR is recorded as “(36 ± 4%)”. The “% Inhibition, cyclic AMP A1” value on hA1AR [2] is reported as −2.4 ± 3.7%.
With `O[C@@H]1[C@H](O)[C@@H]2C[C@@H]2[C@H]1n1cnc2c(NC3CCCCCCC3)nc(Cl)nc21` [Compound 112, (1R,2R,3S,4R,5S)-4-(2-Chloro-6-(cyclooctylamino)-9H-purin-9-yl)bicyclo[3.1.0]hexane-2,3-diol], the Ki at hA1AR [1] amounted to 760 ± 110 nM; at hA3AR, 1530 ± 60 nM. At hA1AR [2], the inhibition at 10 µM stood at 40.1 ± 9%.
Consider `COc1cc(F)c(F)cc1CNc1nc(Cl)nc2c1ncn2[C@H]1[C@H](O)[C@H](O)[C@@H]2C[C@@H]21` [Compound 127, (1R,2R,3S,4R,5S)-4-(2-chloro-6-(4,5-difluoro-2-methoxybenzylamino)-9H-purin-9-yl)bicyclo[3.1.0]hexane-2,3-diol], for which the inhibition at 10 µM was found to be 41% at hA1AR [1] and 30% on hA2AAR. Moreover, the Ki at hA3AR is 83.2 ± 35.7 nM.

The record behind these values is patent publication US9181253B2 (The United States of America, as represented by the …, priority 2008, dated 2015).
